Tested on: ANKA strain of P. berghei
Experiment: single dose STI in vivo screen in infected mice
Set-up: species or system Plasmodium berghei
Settings: percent reduction in parasitemia day 3 post-infection; single 3 mg/kg po in SSV
Description: In the single dose STI in vivo screen, Moro SPF or NMRI mice infected with the ANKA strain of P. berghei (groups of 3-5 mice) were treated on day one post-infection with trioxolanes dissolved or suspended in 3% ethanol and 7% Tween 80. […] SSV consists of 0.5% w/v CMC, 0.5% v/v benzyl alcohol, 0.4% v/v Tween 80, and 0.9% w/v sodium chloride in water. Antimalarial activity was measured by percent reduction in parasitemia on day three post-infection and survival times compared to an untreated control group. Survival to day 30 post-infection is considered to be a cure. […] Other factors influencing antimalarial activity include the stability of carbon radicals formed by β-scission subsequent to the initial electron transfer to the peroxide bond and the influence of steric effects remote from the peroxide bond on the interactions between carbon radicals and potential drug targets.

Compared with `O=C(NC[C@H]1CC[C@]2(CC1)OO[C@]1(O2)C2CC3CC(C2)CC1C3)N1CCOCC1` [OZ272], `O=C(NC[C@H]1CC[C@]2(CC1)OO[C@]1(O2)C2CC3CC(C2)CC1C3)[C@@H]1CCCN1` [OZ337] is higher in “Activity (%) 3 mg/kg SSV po” value: 49% for the first, 97% for the second.

Compared with `Cn1nnnc1S(=O)(=O)C[C@H]1CC[C@]2(CC1)OO[C@]1(O2)C2CC3CC(C2)CC1C3` [OZ332], `CS(=O)(=O)N(CC(N)=O)C[C@H]1CC[C@]2(CC1)OO[C@]1(O2)C2CC3CC(C2)CC1C3` [OZ308] is higher in “Activity (%) 3 mg/kg SSV po” value: 0% for the first, 30% for the second.

Compared with `NC(=O)C1CCN(C(=O)C[C@H]2CC[C@]3(CC2)OO[C@]2(O3)C3CC4CC(C3)CC2C4)CC1` [OZ311], `CS(=O)(=O)C1CCN(C(=O)C[C@H]2CC[C@]3(CC2)OO[C@]2(O3)C3CC4CC(C3)CC2C4)CC1` [OZ345] is lower in “Activity (%) 3 mg/kg SSV po” value: 40% for the first, 0% for the second.

First: c1c[nH]c(C[C@H]2CC[C@]3(CC2)OO[C@]2(O3)C3CC4CC(C3)CC2C4)n1 [OZ355]
Second: c1cncc(NC[C@H]2CC[C@]3(CC2)OO[C@]2(O3)C3CC4CC(C3)CC2C4)c1 [OZ293]
The “Activity (%) 3 mg/kg SSV po” value of the first is lower: 0% for the first, 77% for the second.

Compared with `NS(=O)(=O)c1ccc(NC[C@H]2CC[C@]3(CC2)OO[C@]2(O3)C3CC4CC(C3)CC2C4)cc1` [OZ298], `CS(=O)(=O)CC(=O)NC[C@H]1CC[C@]2(CC1)OO[C@]1(O2)C2CC3CC(C2)CC1C3` [OZ350] is lower in “Activity (%) 3 mg/kg SSV po” value: 98% for the first, 69% for the second.

Compared with `O=C(CNC(=O)c1cccnc1)NC[C@H]1CC[C@]2(CC1)OO[C@]1(O2)C2CC3CC(C2)CC1C3` [OZ316], `O=C(NC[C@H]1CC[C@]2(CC1)OOC1(O2)C2CC3CC(C2)CC1C3)c1ccc(O)nc1` (stereo partly drawn) [OZ282] is higher in “Activity (%) 3 mg/kg SSV po” value: 7% for the first, 53% for the second.

Compared with `Cc1ccc(S(=O)(=O)O)cc1.N[C@H]1CC[C@H](NC(=O)C[C@H]2CC[C@]3(CC2)OO[C@]2(O3)C3CC4CC(C3)CC2C4)CC1` [OZ315], `CS(=O)(=O)N1CCN(C(=O)C[C@H]2CC[C@]3(CC2)OO[C@]2(O3)C3CC4CC(C3)CC2C4)CC1` [OZ344] is lower in “Activity (%) 3 mg/kg SSV po” value: 92% for the first, 0% for the second.

Compared with `Nc1ncccc1C(=O)NC[C@H]1CC[C@]2(CC1)OOC1(O2)C2CC3CC(C2)CC1C3` (stereo partly drawn) [OZ284], `O=C(NC[C@H]1CC[C@]2(CC1)OO[C@]1(O2)C2CC3CC(C2)CC1C3)c1cnccn1` [OZ356] is higher in “Activity (%) 3 mg/kg SSV po” value: 61% for the first, 87% for the second.

First: N=C(N)NC(=O)C[C@H]1CC[C@]2(CC1)OO[C@]1(O2)C2CC3CC(C2)CC1C3 [OZ341]
Second: NC(=O)c1cncn1C[C@H]1CC[C@]2(CC1)OO[C@]1(O2)C2CC3CC(C2)CC1C3 [OZ321]
The “Activity (%) 3 mg/kg SSV po” value of the first is lower: 32% for the first, 64% for the second.

For `O=C(C[C@H]1CC[C@]2(CC1)OO[C@]1(O2)C2CC3CC(C2)CC1C3)N1CCS(=O)(=O)CC1` [OZ342], the “Activity (%) 3 mg/kg SSV po” value was 0%.

Same assay, conditions: percent reduction in parasitemia day 3 post-infection; single 10 mg/kg po in SSV

First: O=C(NC[C@H]1CC[C@]2(CC1)OO[C@]1(O2)C2CC3CC(C2)CC1C3)N1CCOCC1 [OZ272]
Second: O=C(NC[C@H]1CC[C@]2(CC1)OO[C@]1(O2)C2CC3CC(C2)CC1C3)[C@@H]1CCCN1 [OZ337]
The “Activity (%) 10 mg/kg SSV po” value of the first is lower: 98% for the first, 99.92% for the second.

Going from `Cn1nnnc1S(=O)(=O)C[C@H]1CC[C@]2(CC1)OO[C@]1(O2)C2CC3CC(C2)CC1C3` [OZ332] to `CS(=O)(=O)N(CC(N)=O)C[C@H]1CC[C@]2(CC1)OO[C@]1(O2)C2CC3CC(C2)CC1C3` [OZ308], the “Activity (%) 10 mg/kg SSV po” value rises from 8% to 86%.

First: NC(=O)C1CCN(C(=O)C[C@H]2CC[C@]3(CC2)OO[C@]2(O3)C3CC4CC(C3)CC2C4)CC1 [OZ311]
Second: CS(=O)(=O)C1CCN(C(=O)C[C@H]2CC[C@]3(CC2)OO[C@]2(O3)C3CC4CC(C3)CC2C4)CC1 [OZ345]
The “Activity (%) 10 mg/kg SSV po” value of the first is higher: 80% for the first, 75% for the second.

Going from `c1c[nH]c(C[C@H]2CC[C@]3(CC2)OO[C@]2(O3)C3CC4CC(C3)CC2C4)n1` [OZ355] to `O=C(NC[C@H]1CC[C@]2(CC1)OO[C@]1(O2)C2CC3CC(C2)CC1C3)c1cnccn1` [OZ356], the “Activity (%) 10 mg/kg SSV po” value rises from 71% to 99.64%.

Compared with `NS(=O)(=O)c1ccc(NC[C@H]2CC[C@]3(CC2)OO[C@]2(O3)C3CC4CC(C3)CC2C4)cc1` [OZ298], `CS(=O)(=O)CC(=O)NC[C@H]1CC[C@]2(CC1)OO[C@]1(O2)C2CC3CC(C2)CC1C3` [OZ350] is lower in “Activity (%) 10 mg/kg SSV po” value: 99.95% for the first, 99.17% for the second.

Compared with `O=C(CNC(=O)c1cccnc1)NC[C@H]1CC[C@]2(CC1)OO[C@]1(O2)C2CC3CC(C2)CC1C3` [OZ316], `Nc1ncccc1C(=O)NC[C@H]1CC[C@]2(CC1)OOC1(O2)C2CC3CC(C2)CC1C3` (stereo partly drawn) [OZ284] is higher in “Activity (%) 10 mg/kg SSV po” value: 69% for the first, 97% for the second.

Going from `N=C(N)NC(=O)C[C@H]1CC[C@]2(CC1)OO[C@]1(O2)C2CC3CC(C2)CC1C3` [OZ341] to `NC(=O)c1cncn1C[C@H]1CC[C@]2(CC1)OO[C@]1(O2)C2CC3CC(C2)CC1C3` [OZ321], the “Activity (%) 10 mg/kg SSV po” value rises from 97% to 99.77%.

First: CS(=O)(=O)N1CCN(C(=O)C[C@H]2CC[C@]3(CC2)OO[C@]2(O3)C3CC4CC(C3)CC2C4)CC1 [OZ344]
Second: O=C(C[C@H]1CC[C@]2(CC1)OO[C@]1(O2)C2CC3CC(C2)CC1C3)N1CCS(=O)(=O)CC1 [OZ342]
The “Activity (%) 10 mg/kg SSV po” value of the first is lower: 17% for the first, 27% for the second.

Same assay, conditions: single 3 mg/kg po in SSV

Compared with `c1c[nH]c(C[C@H]2CC[C@]3(CC2)OO[C@]2(O3)C3CC4CC(C3)CC2C4)n1` [OZ355], `O=C(NC[C@H]1CC[C@]2(CC1)OO[C@]1(O2)C2CC3CC(C2)CC1C3)c1cnccn1` [OZ356] is higher in “Survival (days) 3 mg/kg SSV po” value: 6.2 days for the first, 8.0 days for the second.

First: O=C(NC[C@H]1CC[C@]2(CC1)OO[C@]1(O2)C2CC3CC(C2)CC1C3)[C@@H]1CCCN1 [OZ337]
Second: CS(=O)(=O)CC(=O)NC[C@H]1CC[C@]2(CC1)OO[C@]1(O2)C2CC3CC(C2)CC1C3 [OZ350]
The “Survival (days) 3 mg/kg SSV po” value of the first is higher: 11.6 days for the first, 9.6 days for the second.

Going from `CS(=O)(=O)C1CCN(C(=O)C[C@H]2CC[C@]3(CC2)OO[C@]2(O3)C3CC4CC(C3)CC2C4)CC1` [OZ345] to `CS(=O)(=O)N1CCN(C(=O)C[C@H]2CC[C@]3(CC2)OO[C@]2(O3)C3CC4CC(C3)CC2C4)CC1` [OZ344], the “Survival (days) 3 mg/kg SSV po” value rises from 6.6 days to 7.4 days.

Same assay, conditions: single 10 mg/kg po in SSV

Going from `NC(=O)C1CCN(C(=O)C[C@H]2CC[C@]3(CC2)OO[C@]2(O3)C3CC4CC(C3)CC2C4)CC1` [OZ311] to `CS(=O)(=O)C1CCN(C(=O)C[C@H]2CC[C@]3(CC2)OO[C@]2(O3)C3CC4CC(C3)CC2C4)CC1` [OZ345], the “Survival (days) 10 mg/kg SSV po” value rises from 8.6 days to 9.2 days.

First: c1c[nH]c(C[C@H]2CC[C@]3(CC2)OO[C@]2(O3)C3CC4CC(C3)CC2C4)n1 [OZ355]
Second: c1cncc(NC[C@H]2CC[C@]3(CC2)OO[C@]2(O3)C3CC4CC(C3)CC2C4)c1 [OZ293]
The “Survival (days) 10 mg/kg SSV po” value of the first is lower: 7.0 days for the first, 8.8 days for the second.

Going from `CS(=O)(=O)N(CC(N)=O)C[C@H]1CC[C@]2(CC1)OO[C@]1(O2)C2CC3CC(C2)CC1C3` [OZ308] to `CS(=O)(=O)CC(=O)NC[C@H]1CC[C@]2(CC1)OO[C@]1(O2)C2CC3CC(C2)CC1C3` [OZ350], the “Survival (days) 10 mg/kg SSV po” value rises from 7.8 days to 10.4 days.

Compared with `NS(=O)(=O)c1ccc(NC[C@H]2CC[C@]3(CC2)OO[C@]2(O3)C3CC4CC(C3)CC2C4)cc1` [OZ298], `Nc1ncccc1C(=O)NC[C@H]1CC[C@]2(CC1)OOC1(O2)C2CC3CC(C2)CC1C3` (stereo partly drawn) [OZ284] is lower in “Survival (days) 10 mg/kg SSV po” value: 9.4 days for the first, 9.0 days for the second.

First: O=C(CNC(=O)c1cccnc1)NC[C@H]1CC[C@]2(CC1)OO[C@]1(O2)C2CC3CC(C2)CC1C3 [OZ316]
Second: O=C(NC[C@H]1CC[C@]2(CC1)OOC1(O2)C2CC3CC(C2)CC1C3)c1ccc(O)nc1 (stereo partly drawn) [OZ282]
The “Survival (days) 10 mg/kg SSV po” value of the first is higher: 10.0 days for the first, 8.3 days for the second.

Compared with `N=C(N)NC(=O)C[C@H]1CC[C@]2(CC1)OO[C@]1(O2)C2CC3CC(C2)CC1C3` [OZ341], `NC(=O)c1cncn1C[C@H]1CC[C@]2(CC1)OO[C@]1(O2)C2CC3CC(C2)CC1C3` [OZ321] is higher in “Survival (days) 10 mg/kg SSV po” value: 8.0 days for the first, 14.0 days for the second.

`O=C(NC[C@H]1CC[C@]2(CC1)OO[C@]1(O2)C2CC3CC(C2)CC1C3)c1cnccn1` [OZ356] and `O=C(NC[C@H]1CC[C@]2(CC1)OO[C@]1(O2)C2CC3CC(C2)CC1C3)[C@@H]1CCCN1` [OZ337] are the same in “Survival (days) 10 mg/kg SSV po” value: 8.6 days for the first, 8.6 days for the second.

Going from `CS(=O)(=O)N1CCN(C(=O)C[C@H]2CC[C@]3(CC2)OO[C@]2(O3)C3CC4CC(C3)CC2C4)CC1` [OZ344] to `O=C(C[C@H]1CC[C@]2(CC1)OO[C@]1(O2)C2CC3CC(C2)CC1C3)N1CCS(=O)(=O)CC1` [OZ342], the “Survival (days) 10 mg/kg SSV po” value falls from 7.8 days to 6.8 days.

— US6906205B2, “Spiro and dispiro 1,2,4-trioxolane antimalarials” (Medicines for Malaria Venture MMV, priority 2002, dated 2005)
